Results reported in article PMC2361651 (British Journal of Cancer, 2005).

What was measured:
[1] = design: method as in Fong et al, 1999; details: preclinical models, intracellular; ref Fong et al, 1999; cited from earlier work
[2] = tested on: coagulation / fibrinolytic pathway; experiment: Coagulation parameters and expanded coagulation series in patients; type: in vivo, human
Description: During the dose escalation stage of the protocol, a standard series of coagulation parameters (APPT, INR and fibrinogen) was explored at baseline prior to therapy and every 2 weeks thereafter. In the dose expansion phase of the protocol, in response to the clinical occurrence of two separate venous thrombotic episodes in study patients, an expanded coagulation series was performed.
At each time point, blood was collected in citrated and EDTA tubes (Becton-Dickinson Vacutainer Systems, Europe). The samples from the citrated tubes were immediately centrifuged (at 4°C for 10 min at 3000 r.p.m.) supernatants pooled into inert plastic, centrifuged again (at 4°C, 10 min at 3000 r.p.m.) and the resultant sample stored in inert plastic tubes at −70°C until analysis. The sample taken into EDTA was centrifuged (at 4°C, for 10 min at 3000 r.p.m.), the supernatant decanted into inert plastic tubes and again stored at −70°C until analysis.

[3] = tested on: KIT (the receptor for stem cell factor); design: method as in Antonian et al, 2000; Smolich et al, 2001; Yee et al, 2002; details: ref Antonian et al, 2000; Smolich et al, 2001; Yee et al, 2002; cited from earlier work
[4] = human, in vivo

In the case of `Cc1cc(C)c(/C=C2\C(=O)Nc3ccccc32)[nH]1` [SU5416, Z-3-[(2,4-dimethylpyrrol-5-yl)methylidenyl]-2-indolinone], the “time for which levels capable of target inhibition are maintained” value [1] is given as greater than 48 h, the “change in INR, APTT or fibrinogen” value ([2]; baseline and every 2 weeks) is given as “No change” and the “reduction in plasmin–anti-plasmin complexes, median change” value ([2]; six patients, expanded panel) is given as 12.7 µg/L. The “reduction in plasmin–anti-plasmin complexes, range of change” value ([2]; six patients, expanded panel) was 0 to 36 µg/L, the “acute increase in plasminogen activator inhibitor (PAI-1) levels, median change” value ([2]; six patients, expanded panel, recovery at 24 h) was 37.3 IU and the “inhibition of KIT” value [3] was “potent competitive inhibitor”. The “Grade II hypersensitivity reactions, patients affected” value [4] was 11 patients.
